Legend:
HRV16 = HRV16 HeLa EC50; type: cell-based, human rhinovirus; details: for EC50: Human rhinovirus sp., HRV16, H1-HeLa cells, 96 h, 33° C.
Procedure: H1-HeLa cells, cultured in complete DMEM medium containing 10% heat-inactivated FBS and 1% Penicillin/Streptomycin, were seeded in 96 well plates at 3000 cells/well one day prior to compound dosing and infection. The antiviral activity of each compound was measured in triplicate. Compounds were added directly to the cell cultures in serial 3-fold dilutions using the HP300 digital dispenser (Hewlett Packard, Palo Alto, CA) immediately prior to infection. The plates were transferred to BSL-2 containment and the appropriate dilution of virus stock, previously determined by titration and prepared in cell culture media, was added to test plates containing cells and serially diluted compounds. Each plate included 6 wells of infected untreated cells and 6 wells of uninfected cells that served as 0% and 100% virus inhibition control, respectively. Following the infection, test plates were incubated for 96 h in a tissue culture incubator set to 33° C./5% CO2. Following incubation, the H1-HeLa cells were removed from incubation and allowed to equilibrate to 25° C. Cell viability was determined by removing 100 μL of culture medium and adding 100 μL of Cell-Titer Glo viability reagent. The mixtures were incubated on a shaker for 10 minutes at 25° C., and the luminescence signal was quantified on an Envision luminescence plate reader.

MRC5 cytotoxicity assay = type: cell-based; details: human, MRC5 cells
Procedure: (§1) Compounds were tested in a high-throughput 384-well assay format for cytotoxicity in MRC5 cells (human fetal lung fibroblast cell line). Cells were diluted in media (MEM (10-010-CM), 10% FBS, 1% PSG) to 16.6K cells/mL and plated at 90 uL/well into 384 well poly-D-lysine coated assay plates and placed in an incubator at 37° C. and 5% CO2. Compounds were serially diluted (1:3) in 100% DMSO in 384-well plates in quadruplicate. DMSO and 2 mM Puromycin were included as negative and positive controls respectively. 24 hours after cell plating, a 384 channel pipettor was used to transfer 0.4 uL from the compound plate to the assay plate. Assay plates were returned to the incubator. After 5 days, assay plates were washed with 80 uL/well of PBS before addition of 20 μL of Cell Titer Glo. Assay plates were read on the Envision plate reader. […] CC50 values were calculated in Accord (on-line tool) using a one-site dose-response model to generate sigmoidal curve fits.

in vitro = type: cell-based; details: human, read-out: CC50 GALHEPG2
Procedure: The compound of Formula I and compounds 1, 2 and 6 were tested in a high-throughput 384-well assay format for cytotoxicity in galactose-adapted HepG2 cells (human liver carcinoma cell line).
as §1, with “Cells” for “Compounds were tested in a high-throughput 384-well assay format for cytotoxicity in MRC5 cells (human fetal lung fibroblast cell line). Cells”, “(DMEM (11966),” for “(MEM (10-010-CM),”, “FBS, 1% NEAA, 0.2% Galactose, 1% Pyruvate, 1% Glutamax,” for “FBS,”

Huh-7 cytotoxicity assay = type: cell-based; details: human, Huh7 cells
Procedure: as §1, with “Huh7” for “MRC5”, “(Hepatocarcinoma” for “(human fetal lung fibroblast”, “(DMEM (15-018-CM),” for “(MEM (10-010-CM),”, “FBS, 1% NEAA,” for “FBS,”

| SMILES | EC50 (HRV16) [nM] | CC50 at 5 days (MRC5 cytotoxicity assay) [µM] | CC50 at 5 days (in vitro) [µM] | CC50 at 5 days (Huh-7 cytotoxicity assay) [µM] | times more potent than the compound of Formula Ib, HRV16 HeLa (HRV16; EC50 ratio vs Formula Ib) [times] | times more potent relative to compound 1, HRV16 HeLa (HRV16; EC50 ratio vs compound 1) | times more potent relative to compound 3, HRV16 HeLa (HRV16; EC50 ratio vs compound 3) | times more potent relative to compound 4, HRV16 Hela (HRV16; EC50 ratio vs compound 4) | times more potent relative to compound 5, HRV16 HeLa (HRV16; EC50 ratio vs compound 5) | times more potent than compound 7, HRV16 HeLa (HRV16; EC50 ratio vs compound 7) [times] |
| --- | --- | --- | --- | --- | --- | --- | --- | --- | --- | --- |
| CCC(CC)COC(=O)[C@H](C)NP(=O)(OC[C@@]1(C#N)O[C@@H](c2ccc3c(N)ncnn23)[C@H](O)[C@@H]1O)Oc1ccccc1 (stereo partly shown) [Compound 2, reference compound] | 164 | > 44.4 | > 44.4 | > 44.4 |  |  |  |  |  |  |
| C[C@H](N[P@](=O)(OC[C@@]1(C#N)O[C@@H](c2ccc3c(N)ncnn23)[C@H](O)[C@@H]1O)Oc1ccccc1)C(=O)OC1CCCCC1 [Formula I, cyclohexyl ((S)-(((2R,3S,4R,5S)-5-(4-aminopyrrolo[2,1-f][1,2,4]triazin-7-yl)-2-cyano-3,4-dihydroxytetrahydrofuran-2-yl)methoxy)(phenoxy)phosphoryl)-L-alaninate] | 227 | > 44.4 | > 88.9 | > 88.9 | 2.9 | about 4.2 times | about 6.2 times | about 4.3 times | about 13.8 times |  |
| CCOC(=O)[C@H](C)NP(=O)(OC[C@@]1(C#N)O[C@@H](c2ccc3c(N)ncnn23)[C@H](O)[C@@H]1O)Oc1ccccc1 (stereo partly shown) [Compound 1, reference compound] | 959 | > 44.4 | > 44.4 | > 44.4 |  |  |  |  |  |  |
| CCC(CC)COC(=O)[C@H](C)N[P@](=O)(OC[C@@]1(C#N)O[C@@H](c2ccc3c(N)ncnn23)[C@H](O)[C@@H]1O)Oc1ccccc1 [Compound 6, 2-ethylbutyl ((S)-(((2R,3S,4R,5S)-5-(4-aminopyrrolo[2,1-f][1,2,4]triazin-7-yl)-2-cyano-3,4-dihydroxytetrahydrofuran-2-yl)methoxy)(phenoxy)phosphoryl)alaninate] | 135 | > 88.4 | > 88.9 | 17.2 |  |  |  |  |  | 1.4 |
